Assay results taken from the kinase profiling compilation of Christmann-Franck et al. (2016).

Legend:
Assay in all cases: radiometric filter-binding kinase assay, Kinase HotSpot
Details in all cases: compound 0.5 µM; ATP 10 µM
[1] = biological target: NEK4 (human) (UniProt P51957)
[2] = biological target: PLK2 (human) (UniProt Q9NYY3)
[3] = biological target: MERTK (human) (UniProt Q12866)
[4] = biological target: BRSK2 (human) (UniProt Q8IWQ3)
[5] = biological target: EPHB4 (human) (UniProt P54760)
[6] = biological target: CDK6 CCND3 (human) (UniProt P30281+Q00534)
[7] = biological target: RPS6KA4 KD2 (human) (UniProt O75676)
[8] = biological target: SRC (human) (UniProt P12931)
[9] = biological target: WNK2 (human) (UniProt Q9Y3S1)
[10] = biological target: RPS6KA5 KD2 (human) (UniProt O75582)
[11] = biological target: CDK9 CCNK (human) (UniProt O75909+P50750)
[12] = biological target: CAMK1G (human) (UniProt Q96NX5)
[13] = biological target: ACVRL1 (human) (UniProt P37023)
[14] = biological target: DYRK1A (human) (UniProt Q13627)
[15] = biological target: TEC (human) (UniProt P42680)
[16] = biological target: MAP3K10 (human) (UniProt Q02779)
Chain of MAP3K10 (human) (Q02779 whole entry, looked up): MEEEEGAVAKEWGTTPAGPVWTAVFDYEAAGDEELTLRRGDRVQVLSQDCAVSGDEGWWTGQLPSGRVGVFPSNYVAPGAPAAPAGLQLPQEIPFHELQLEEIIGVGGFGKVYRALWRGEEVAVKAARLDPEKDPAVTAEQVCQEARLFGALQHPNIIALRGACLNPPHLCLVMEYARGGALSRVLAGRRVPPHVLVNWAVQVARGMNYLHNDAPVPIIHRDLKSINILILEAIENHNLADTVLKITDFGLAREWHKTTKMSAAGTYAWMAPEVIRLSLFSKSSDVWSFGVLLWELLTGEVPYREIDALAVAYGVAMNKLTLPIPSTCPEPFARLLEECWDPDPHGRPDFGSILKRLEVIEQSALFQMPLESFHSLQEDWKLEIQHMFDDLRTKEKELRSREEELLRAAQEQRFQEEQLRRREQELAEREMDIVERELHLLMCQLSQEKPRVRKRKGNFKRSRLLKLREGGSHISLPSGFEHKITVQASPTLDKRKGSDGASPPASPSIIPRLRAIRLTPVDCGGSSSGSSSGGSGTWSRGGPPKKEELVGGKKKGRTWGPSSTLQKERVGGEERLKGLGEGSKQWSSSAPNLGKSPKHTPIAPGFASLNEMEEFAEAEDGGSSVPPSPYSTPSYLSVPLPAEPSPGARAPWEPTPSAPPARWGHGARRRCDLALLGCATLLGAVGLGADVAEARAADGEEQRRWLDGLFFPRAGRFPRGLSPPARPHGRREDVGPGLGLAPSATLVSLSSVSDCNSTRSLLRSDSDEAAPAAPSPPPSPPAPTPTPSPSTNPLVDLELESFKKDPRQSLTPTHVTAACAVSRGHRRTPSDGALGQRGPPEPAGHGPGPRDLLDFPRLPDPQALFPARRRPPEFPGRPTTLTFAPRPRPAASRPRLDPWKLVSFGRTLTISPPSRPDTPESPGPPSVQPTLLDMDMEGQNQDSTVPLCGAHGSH

[17] = biological target: CDK7 CCNH MNAT1 (human) (UniProt P50613+P51948+P51946)
[18] = biological target: CSF1R (human) (UniProt P07333)
[19] = biological target: CAMK2D (human) (UniProt Q13557)
[20] = biological target: MAP3K2 (human) (UniProt Q9Y2U5)
[21] = biological target: ABL1 (human) (UniProt P00519)
[22] = biological target: RPS6KA2 KD1 KD2 (human) (UniProt Q15349)
[23] = biological target: SRMS (human) (UniProt Q9H3Y6)
[24] = biological target: GSK3A (human) (UniProt P49840)
[25] = biological target: FGFR2 (human) (UniProt P21802)
[26] = biological target: CDK6 CCND1 (human) (UniProt Q00534+P24385)
[27] = biological target: HIPK1 (human) (UniProt Q86Z02)
[28] = biological target: CDK3 CCNE1 (human) (UniProt Q00526+P24864)
[29] = biological target: MAP2K2 (human) (UniProt P36507)
[30] = biological target: SLK (human) (UniProt Q9H2G2)
Chain of SLK (human) (Q9H2G2 whole entry, looked up): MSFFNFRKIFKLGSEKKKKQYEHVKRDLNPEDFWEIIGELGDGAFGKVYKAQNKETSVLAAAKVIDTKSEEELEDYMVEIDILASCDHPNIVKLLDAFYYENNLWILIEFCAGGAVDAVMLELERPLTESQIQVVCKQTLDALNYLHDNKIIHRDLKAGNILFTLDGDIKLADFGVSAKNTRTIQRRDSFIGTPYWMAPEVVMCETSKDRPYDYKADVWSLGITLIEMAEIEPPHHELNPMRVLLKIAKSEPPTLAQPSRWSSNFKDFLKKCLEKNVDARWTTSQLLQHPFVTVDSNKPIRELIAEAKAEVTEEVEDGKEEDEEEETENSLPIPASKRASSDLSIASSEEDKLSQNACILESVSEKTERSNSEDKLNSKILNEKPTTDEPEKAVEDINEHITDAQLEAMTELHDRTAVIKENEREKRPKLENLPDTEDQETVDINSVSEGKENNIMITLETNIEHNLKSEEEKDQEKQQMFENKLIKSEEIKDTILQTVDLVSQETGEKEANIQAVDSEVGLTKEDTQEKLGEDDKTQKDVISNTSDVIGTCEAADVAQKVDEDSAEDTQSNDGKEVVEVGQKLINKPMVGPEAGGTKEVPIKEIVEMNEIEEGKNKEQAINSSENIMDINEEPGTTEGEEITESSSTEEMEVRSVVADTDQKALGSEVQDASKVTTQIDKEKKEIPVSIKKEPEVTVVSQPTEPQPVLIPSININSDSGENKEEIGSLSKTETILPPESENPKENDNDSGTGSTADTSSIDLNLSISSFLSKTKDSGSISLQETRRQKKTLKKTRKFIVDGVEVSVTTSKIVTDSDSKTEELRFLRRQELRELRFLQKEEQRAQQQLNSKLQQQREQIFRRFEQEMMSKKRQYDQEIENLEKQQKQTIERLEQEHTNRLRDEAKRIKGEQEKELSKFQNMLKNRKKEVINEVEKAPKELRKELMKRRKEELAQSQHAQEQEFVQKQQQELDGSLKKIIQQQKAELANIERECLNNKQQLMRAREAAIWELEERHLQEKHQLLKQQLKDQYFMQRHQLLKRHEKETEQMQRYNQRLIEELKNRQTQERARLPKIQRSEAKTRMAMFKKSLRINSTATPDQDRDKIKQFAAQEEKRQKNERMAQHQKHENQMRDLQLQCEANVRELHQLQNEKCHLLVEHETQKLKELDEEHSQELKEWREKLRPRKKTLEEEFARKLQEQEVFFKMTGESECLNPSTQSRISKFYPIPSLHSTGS

[31] = biological target: EPHA4 (human) (UniProt P54764)
[32] = biological target: NEK11 (human) (UniProt Q8NG66)
[33] = biological target: CAMK2G (human) (UniProt Q13555)
[34] = biological target: TSSK2 (human) (UniProt Q96PF2)
Chain of TSSK2 (human) (Q96PF2 whole entry, looked up): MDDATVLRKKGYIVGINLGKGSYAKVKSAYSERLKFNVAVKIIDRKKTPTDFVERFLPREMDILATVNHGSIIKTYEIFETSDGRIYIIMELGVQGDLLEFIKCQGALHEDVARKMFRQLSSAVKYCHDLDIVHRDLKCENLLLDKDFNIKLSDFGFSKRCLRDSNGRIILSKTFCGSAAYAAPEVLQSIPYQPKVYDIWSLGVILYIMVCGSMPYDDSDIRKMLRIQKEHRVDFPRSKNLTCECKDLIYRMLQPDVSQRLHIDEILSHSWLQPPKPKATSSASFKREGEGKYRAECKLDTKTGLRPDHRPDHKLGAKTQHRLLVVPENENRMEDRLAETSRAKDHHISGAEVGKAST

[35] = biological target: PTK2B (human) (UniProt Q14289)
[36] = biological target: MAP4K5 (human) (UniProt Q9Y4K4)
[37] = biological target: TAOK2 (human) (UniProt Q9UL54)
[38] = biological target: CSNK1A1 (human) (UniProt P48729)
[39] = biological target: PTK6 (human) (UniProt Q13882)
[40] = biological target: FYN (human) (UniProt P06241)
[41] = biological target: CLK1 (human) (UniProt P49759)

Chain of MERTK (human) (Q12866 whole entry, looked up): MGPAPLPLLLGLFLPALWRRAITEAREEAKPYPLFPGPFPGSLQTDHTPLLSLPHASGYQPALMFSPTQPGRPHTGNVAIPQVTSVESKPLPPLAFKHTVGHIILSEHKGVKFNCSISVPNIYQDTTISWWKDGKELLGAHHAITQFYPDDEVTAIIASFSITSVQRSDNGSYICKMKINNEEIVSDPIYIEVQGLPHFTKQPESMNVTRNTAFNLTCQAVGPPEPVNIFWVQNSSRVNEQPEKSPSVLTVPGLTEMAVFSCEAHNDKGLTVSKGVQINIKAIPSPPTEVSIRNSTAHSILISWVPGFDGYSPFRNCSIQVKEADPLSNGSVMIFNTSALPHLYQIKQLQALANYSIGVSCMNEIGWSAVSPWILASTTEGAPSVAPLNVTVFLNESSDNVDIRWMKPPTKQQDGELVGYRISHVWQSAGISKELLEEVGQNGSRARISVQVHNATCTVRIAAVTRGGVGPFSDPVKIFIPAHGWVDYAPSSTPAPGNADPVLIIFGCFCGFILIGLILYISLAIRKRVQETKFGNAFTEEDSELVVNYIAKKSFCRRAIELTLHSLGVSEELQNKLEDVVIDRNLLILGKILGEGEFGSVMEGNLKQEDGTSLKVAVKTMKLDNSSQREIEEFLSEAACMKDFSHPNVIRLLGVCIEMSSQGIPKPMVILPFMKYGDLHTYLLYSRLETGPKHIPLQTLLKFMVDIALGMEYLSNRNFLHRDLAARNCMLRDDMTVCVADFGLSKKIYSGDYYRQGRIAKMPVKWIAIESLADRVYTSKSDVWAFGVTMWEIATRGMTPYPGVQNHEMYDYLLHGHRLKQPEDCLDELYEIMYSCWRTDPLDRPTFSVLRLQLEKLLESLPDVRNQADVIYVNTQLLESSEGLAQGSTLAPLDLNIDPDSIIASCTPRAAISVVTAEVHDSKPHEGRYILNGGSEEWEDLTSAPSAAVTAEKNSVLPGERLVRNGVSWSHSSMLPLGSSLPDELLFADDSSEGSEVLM
Chain of NEK4 (human) (P51957 whole entry, looked up): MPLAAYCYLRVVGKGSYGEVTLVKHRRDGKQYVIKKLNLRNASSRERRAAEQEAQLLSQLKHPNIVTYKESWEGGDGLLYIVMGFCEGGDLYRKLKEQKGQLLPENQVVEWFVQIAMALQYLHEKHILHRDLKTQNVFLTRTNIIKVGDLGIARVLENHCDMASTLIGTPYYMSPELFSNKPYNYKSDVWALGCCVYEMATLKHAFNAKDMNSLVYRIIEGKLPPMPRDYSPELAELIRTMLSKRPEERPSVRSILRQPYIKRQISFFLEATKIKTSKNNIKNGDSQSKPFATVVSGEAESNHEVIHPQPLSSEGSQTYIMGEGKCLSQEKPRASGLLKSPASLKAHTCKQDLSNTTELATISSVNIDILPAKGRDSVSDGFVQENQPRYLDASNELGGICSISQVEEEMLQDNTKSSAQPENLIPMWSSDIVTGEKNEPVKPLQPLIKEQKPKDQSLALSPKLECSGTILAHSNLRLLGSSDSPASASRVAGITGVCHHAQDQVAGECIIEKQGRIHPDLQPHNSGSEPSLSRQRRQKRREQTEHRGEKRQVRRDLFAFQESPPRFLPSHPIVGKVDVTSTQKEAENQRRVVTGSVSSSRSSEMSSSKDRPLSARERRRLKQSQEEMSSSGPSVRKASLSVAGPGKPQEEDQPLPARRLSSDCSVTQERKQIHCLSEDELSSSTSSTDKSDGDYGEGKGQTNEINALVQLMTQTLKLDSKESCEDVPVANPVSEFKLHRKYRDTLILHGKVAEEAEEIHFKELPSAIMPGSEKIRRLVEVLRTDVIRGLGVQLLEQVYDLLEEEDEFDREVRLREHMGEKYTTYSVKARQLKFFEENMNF
Chain of PLK2 (human) (Q9NYY3 whole entry, looked up): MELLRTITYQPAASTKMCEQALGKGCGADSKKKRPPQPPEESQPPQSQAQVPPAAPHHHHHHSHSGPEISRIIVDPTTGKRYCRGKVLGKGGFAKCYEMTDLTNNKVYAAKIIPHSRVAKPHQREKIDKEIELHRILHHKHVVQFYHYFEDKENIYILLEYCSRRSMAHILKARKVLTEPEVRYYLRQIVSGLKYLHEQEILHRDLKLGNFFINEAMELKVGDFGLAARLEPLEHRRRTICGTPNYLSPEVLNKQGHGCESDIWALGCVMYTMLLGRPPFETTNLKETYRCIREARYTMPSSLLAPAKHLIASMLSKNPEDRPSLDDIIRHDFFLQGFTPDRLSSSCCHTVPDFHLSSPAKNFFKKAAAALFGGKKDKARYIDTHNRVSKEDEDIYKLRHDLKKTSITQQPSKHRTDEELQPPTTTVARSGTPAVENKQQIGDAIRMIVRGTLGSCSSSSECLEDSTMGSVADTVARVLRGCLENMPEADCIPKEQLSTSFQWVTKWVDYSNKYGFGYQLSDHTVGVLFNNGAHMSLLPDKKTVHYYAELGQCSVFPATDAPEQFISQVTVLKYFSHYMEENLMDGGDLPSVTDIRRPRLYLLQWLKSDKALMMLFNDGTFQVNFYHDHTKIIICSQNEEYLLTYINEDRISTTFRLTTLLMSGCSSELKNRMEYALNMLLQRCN

Work on `Cc1[nH]c(/C=C2\C(=O)Nc3ccc(S(=O)(=O)N(C)c4cccc(Cl)c4)cc32)c(C)c1C(=O)N1CCN(C)CC1` yielded a residual activity [1] of 79.7%, a residual activity [2] of 96.4% and a residual activity [3] of 21.4%. For the same molecule, the residual activity [4] was 89%, the residual activity [5] was 95.4% and the residual activity [6] was 72.8%. It also gave a residual activity [7] of 109%, a residual activity [8] of 53.3% and a residual activity [9] of 112%. For the same molecule, the residual activity [10] was 94.1%, the residual activity [11] was 90.2% and the residual activity [12] was 92.5%. For the same molecule, the residual activity [13] was 103%, the residual activity [14] was 94.1% and the residual activity [15] was 86.7%. It also gave a residual activity [16] of 74%, a residual activity [17] of 59.7% and a residual activity [18] of 64.9%. It also gave a residual activity [19] of 68.4%, a residual activity [20] of 68.5% and a residual activity [21] of 89.1%. For the same molecule, the residual activity [22] was 75.4%, the residual activity [23] was 104% and the residual activity [24] was 98.4%. For the same molecule, the residual activity [25] was 74.1%, the residual activity [26] was 84.8% and the residual activity [27] was 104%. The residual activity [28] was 89.4%, the residual activity [29] was 99.5% and the residual activity [30] was 13.6%. It also gave a residual activity [31] of 80.7%, a residual activity [32] of 103% and a residual activity [33] of 119%. The residual activity [34] was 96.3%, the residual activity [35] was 57.7% and the residual activity [36] was 5.06%. It also gave a residual activity [37] of 21.9%, a residual activity [38] of 79.2% and a residual activity [39] of 91.3%. The residual activity [40] was 67.1%.
`c1ccc(-c2n[nH]c3c2oc2ccccc23)cc1` was tested, and the residual activity [1] was 92.9%, the residual activity [2] was 102% and the residual activity [3] was 80%. For the same molecule, the residual activity [4] was 101%, the residual activity [41] was 84% and the residual activity [5] was 112%. The residual activity [6] was 91.6%, the residual activity [7] was 90.2% and the residual activity [8] was 81.3%. For the same molecule, the residual activity [9] was 102%, the residual activity [10] was 94.9% and the residual activity [11] was 86.2%. For the same molecule, the residual activity [12] was 100%, the residual activity [13] was 111% and the residual activity [14] was 114%. It also gave a residual activity [15] of 95.6%, a residual activity [16] of 91.4% and a residual activity [17] of 101%. The residual activity [18] was 78.1%, the residual activity [19] was 94.5% and the residual activity [20] was 85.9%. The residual activity [21] was 99.6%, the residual activity [22] was 77.5% and the residual activity [23] was 99.5%. For the same molecule, the residual activity [24] was 91.4%, the residual activity [25] was 97% and the residual activity [26] was 90.4%. The residual activity [27] was 103%, the residual activity [28] was 90% and the residual activity [29] was 85.8%. The residual activity [30] was 107%, the residual activity [31] was 95.5% and the residual activity [32] was 103%. The residual activity [33] was 93.3%, the residual activity [34] was 97.6% and the residual activity [35] was 96.8%. It also gave a residual activity [36] of 36.6%, a residual activity [37] of 80.7% and a residual activity [38] of 73.8%. For the same molecule, the residual activity [40] was 104%.
Work on `N#C/C(=C(/N)Sc1ccc(N)cc1)c1ccccc1C(F)(F)F` yielded a residual activity [1] of 95.9%, a residual activity [2] of 98.1% and a residual activity [3] of 80.7%. For the same molecule, the residual activity [4] was 102%, the residual activity [5] was 102% and the residual activity [6] was 103%. It also gave a residual activity [7] of 112%, a residual activity [8] of 94.1% and a residual activity [9] of 109%. The residual activity [10] was 97.9%, the residual activity [11] was 98% and the residual activity [12] was 96.6%. For the same molecule, the residual activity [13] was 106%, the residual activity [14] was 93.9% and the residual activity [15] was 109%. It also gave a residual activity [16] of 88.1%, a residual activity [17] of 100% and a residual activity [18] of 101%. It also gave a residual activity [19] of 93.4%, a residual activity [20] of 115% and a residual activity [21] of 106%. For the same molecule, the residual activity [22] was 99.2%, the residual activity [23] was 105% and the residual activity [24] was 110%. The residual activity [25] was 101%, the residual activity [26] was 98% and the residual activity [27] was 107%. For the same molecule, the residual activity [28] was 105%, the residual activity [29] was 94.5% and the residual activity [30] was 102%. For the same molecule, the residual activity [31] was 99.3%, the residual activity [32] was 97.7% and the residual activity [33] was 106%. It also gave a residual activity [34] of 94.2%, a residual activity [35] of 105% and a residual activity [36] of 94%. It also gave a residual activity [37] of 101%, a residual activity [38] of 82.9% and a residual activity [39] of 97.6%. The residual activity [40] was 97.1%.
`O=C1NC(=O)C(c2cn(CCCn3ccnc3)c3ccccc23)=C1Nc1ccccc1` showed a residual activity [1] of 94.9%, a residual activity [2] of 101% and a residual activity [3] of 86.1%. The residual activity [4] was 93.6%, the residual activity [41] was 43.3% and the residual activity [5] was 87.9%. For the same molecule, the residual activity [6] was 104%, the residual activity [7] was 44.4% and the residual activity [8] was 100%. It also gave a residual activity [9] of 99.8%, a residual activity [10] of 36.9% and a residual activity [11] of 64.6%. For the same molecule, the residual activity [12] was 84.6%, the residual activity [13] was 95.9% and the residual activity [14] was 30.8%. The residual activity [15] was 162%, the residual activity [16] was 34.5% and the residual activity [17] was 96.3%. For the same molecule, the residual activity [18] was 97.5%, the residual activity [19] was 85.4% and the residual activity [20] was 83.3%. It also gave a residual activity [21] of 96.1%, a residual activity [22] of 3.17% and a residual activity [23] of 103%. It also gave a residual activity [24] of 10.6%, a residual activity [25] of 103% and a residual activity [26] of 83.1%. The residual activity [27] was 102%, the residual activity [28] was 90.9% and the residual activity [29] was 102%. For the same molecule, the residual activity [30] was 39.1%, the residual activity [31] was 111% and the residual activity [32] was 75.6%. The residual activity [33] was 90.9%, the residual activity [34] was 97.9% and the residual activity [35] was 93.3%. The residual activity [36] was 66.5%, the residual activity [37] was 92.3% and the residual activity [38] was 102%. For the same molecule, the residual activity [40] was 102%.
`CCCC(=O)Oc1ccc2[nH]c(C(=O)c3cc4ccccc4[nH]3)cc2c1` showed a residual activity [1] of 96.4%, a residual activity [2] of 101% and a residual activity [3] of 96.7%. For the same molecule, the residual activity [4] was 98.8%, the residual activity [41] was 99.3% and the residual activity [5] was 101%. The residual activity [6] was 92.5%, the residual activity [7] was 99.1% and the residual activity [8] was 97%. It also gave a residual activity [9] of 113%, a residual activity [10] of 95.3% and a residual activity [11] of 104%. It also gave a residual activity [12] of 100%, a residual activity [13] of 90.9% and a residual activity [15] of 97.8%. For the same molecule, the residual activity [16] was 87.7%, the residual activity [17] was 98.7% and the residual activity [18] was 103%. The residual activity [19] was 111%, the residual activity [20] was 81.7% and the residual activity [21] was 100%. It also gave a residual activity [22] of 85%, a residual activity [23] of 104% and a residual activity [24] of 94.1%. It also gave a residual activity [25] of 100%, a residual activity [26] of 92.7% and a residual activity [27] of 101%. The residual activity [28] was 88.2%, the residual activity [29] was 98.7% and the residual activity [30] was 98.9%. It also gave a residual activity [31] of 99.3%, a residual activity [32] of 101% and a residual activity [33] of 99.4%. The residual activity [34] was 78%, the residual activity [35] was 87.6% and the residual activity [36] was 88%. It also gave a residual activity [37] of 110%, a residual activity [38] of 94% and a residual activity [39] of 85.4%. The residual activity [40] was 102%.
